The source of these data is patent US20160000734A1, “METHOD AND COMPOSITIONS OF CIVAMIDE TO TREAT DISEASE OF THE INTESTINES” (WINSTON LABORATORIES, INC., priority 2010, published 2016).

For data set [1] the following is noted: cited from earlier work; for efficacy in painful, inflammatory or allergic disorders: compared with capsaicin compositions; for localized burning and stinging / local adverse effects: compared with capsaicin.
The test system of the next data set is hot-plate animal model. To be noted: oral civamide; cited from earlier work.
In another data set the test system is Formalin animal model. Particulars: oral civamide; cited from earlier work.
The conditions of data set [2]: dogs; cited from earlier work.
The next data set deals with Chung animal model. To be noted: oral civamide; cited from earlier work.
The conditions of data set [3]: rodents; cited from earlier work.
The next data set concerns normal volunteers. Put plainly: Abdominal distress / gastrointestinal discomfort after oral capsules in normal human volunteers. It is filed as in vivo. To be noted: soft gel capsules (not enteric coated).

Structures are written as SMILES. Read-outs that look alike come from different tables or passages of the source.

As to `COc1cc(CNC(=O)CCCC/C=C\C(C)C)ccc1O` [civamide, cis-8-methyl-N-vanillyl-6-nonenamide], the “efficacy in painful, inflammatory or allergic disorders” value in data set [1] is “comparable in efficacy”; in data set [1] (listed as Civamide), “effective”. The “localized burning and stinging / local adverse effects” value in data set [1] is “significantly less local adverse effects”; in data set [1] (listed as Civamide), “significantly less of the localized burning and stinging”. Also, the analgesia result with hot-plate animal model, in the data set on Formalin animal model and with Chung animal model was “effective analgesia” each time. The “absorption of an administered oral dose” value in data set [2] and in data set [3] was 8-12% each time. The “abdominal distress / local burning and discomfort in the gastrointestinal tract” value with normal volunteers was “more local burning and discomfort in the gastrointestinal tract than comparable dosages of capsaicin”.
